Reference: ChEMBL document CHEMBL4330083, “Synthesis and evaluation of isoprenylation-resveratrol dimer derivatives against Alzheimer's disease” (Eur J Med Chem, 2019)

Legend:
Assay type in all cases: functional
PC-12 [1] = assay: Neuroprotection against H2O2-induced oxidative damage in rat PC12 cells assessed as late apoptotic cells at 2.5 uM after 24 hrs in presence of H2O2 by annexin V-FITC/propidium iodide staining based flow cytometric analysis (reference value: 29.8%)
PC-12 [2] = assay: Neuroprotection against H2O2-induced oxidative damage in rat PC12 cells assessed as early apoptotic cells at 5 uM after 24 hrs in presence of H2O2 by annexin V-FITC/propidium iodide staining based flow cytometric analysis (reference value: 2.1%)
PC-12 [3] = assay: Neuroprotection against H2O2-induced oxidative damage in rat PC12 cells assessed as viable cells at 5 uM after 24 hrs in presence of H2O2 by annexin V-FITC/propidium iodide staining based flow cytometric analysis (reference value: 63.6%); settings: PC-12, 24 h, read-out: Activity
PC-12 [4] = assay: Neuroprotection against H2O2-induced oxidative damage in rat PC12 cells assessed as viable cells at 10 uM after 24 hrs in presence of H2O2 by annexin V-FITC/propidium iodide staining based flow cytometric analysis (reference value: 63.6%); settings: PC-12, 24 h, read-out: Activity
PC-12 [5] = assay: Neuroprotection against H2O2-induced oxidative damage in rat PC12 cells assessed as mitochondrial membrane potential at 2.5 uM after 24 hrs in presence of H2O2 by Jc-1 staining based flow cytometric analysis (reference value: 16.35 +/- 3.19%)
PC-12 [6] = assay: Neuroprotection against H2O2-induced oxidative damage in rat PC12 cells assessed as mitochondrial membrane potential at 5 uM after 24 hrs in presence of H2O2 by Jc-1 staining based flow cytometric analysis (reference value: 16.35 +/- 3.19%)
PC-12 [7] = assay: Neuroprotection against H2O2-induced oxidative damage in rat PC12 cells assessed as intracellular Ca2+ level by measuring mean fluorescence intensity at 10 uM after 24 hrs in presence of H2O2 by Fluo-3/AM staining based flow cytometric analysis (reference value: 43156)
[8] = Neuroprotection against H2O2-induced inflammation in […] cells assessed as reduction in ROS production by measuring mean fluorescence intensity at 2.5 uM after 18 hrs by DCFH-DA staining-based flow cytometric analysis (reference value: 11273)
PC-12 [9] = assay: Neuroprotection against H2O2-induced oxidative damage in rat PC12 cells assessed as reduction in ROS production by measuring mean fluorescence intensity at 10 uM preincubated for 4 hrs followed by H2O2 addition measured after 24 hrs by DCFH-DA staining-based flow cytometric analysis (reference value: 102489)
PC-12 [10] = assay: Neuroprotection against H2O2-induced oxidative damage in rat PC12 cells assessed as viable cells at 2.5 uM after 24 hrs in presence of H2O2 by annexin V-FITC/propidium iodide staining based flow cytometric analysis (reference value: 64.1%); settings: PC-12, 24 h, read-out: Activity
PC-12 [11] = assay: Neuroprotection against H2O2-induced oxidative damage in rat PC12 cells assessed as early apoptotic cells at 5 uM after 24 hrs in presence of H2O2 by annexin V-FITC/propidium iodide staining based flow cytometric analysis (reference value: 29.3%)
PC-12 [12] = assay: Neuroprotection against H2O2-induced oxidative damage in rat PC12 cells assessed as necrotic cells at 5 uM after 24 hrs in presence of H2O2 by annexin V-FITC/propidium iodide staining based flow cytometric analysis (reference value: 0.4%)
PC-12 [13] = assay: Neuroprotection against H2O2-induced oxidative damage in rat PC12 cells assessed as necrotic cells at 10 uM after 24 hrs in presence of H2O2 by annexin V-FITC/propidium iodide staining based flow cytometric analysis (reference value: 0.4%)
PC-12 [14] = assay: Neuroprotection against H2O2-induced oxidative damage in rat PC12 cells assessed as viable cells at 10 uM after 24 hrs in presence of H2O2 by annexin V-FITC/propidium iodide staining based flow cytometric analysis (reference value: 64.1%); settings: PC-12, 24 h, read-out: Activity
PC-12 [15] = assay: Neuroprotection against H2O2-induced oxidative damage in rat PC12 cells assessed as intracellular Ca2+ level by measuring mean fluorescence intensity at 10 uM after 24 hrs in presence of H2O2 by Fluo-3/AM staining based flow cytometric analysis (reference value: 51697)

Structure (SMILES): CC(C)=CCc1c(O)cc(/C=C/c2ccc3c(c2)[C@H](c2cc(O)c4c(c2)OC(C)(C)CC4)[C@@H](c2ccc(O)cc2)O3)cc1O
- Activity (PC-12 [1]): 25.1%
- Activity (PC-12 [2]): 1.9%
- viability at 5 µM (PC-12 [3]): 84%
- viability at 10 µM (PC-12 [4]): 92.7%
- Activity (PC-12 [5]): 42.34%
- Activity (PC-12 [6]): 68.51%
- Flu intensity (PC-12 [7]): 35826
- Flu intensity [8]: 11086

Structure (SMILES): CC(C)=CCc1c(O)cc(/C=C/c2ccc3c(c2)[C@H](c2cc(O)c(CC=C(C)C)c(O)c2)[C@@H](c2ccc(O)cc2)O3)cc1O
- Flu intensity (PC-12 [9]): 25470
- viability at 2.5 µM (PC-12 [10]): 75.9%
- Activity (PC-12 [11]): 13.1%
- Activity (PC-12 [12]): 0.7%
- Activity (PC-12 [13]): 0.7%
- viability at 10 µM (PC-12 [14]): 88.4%
- Flu intensity (PC-12 [15]): 25664
